Data on 14 compounds can be found in US10246429B2, “Vinyl fluoride cyclopropyl fused thiazin-2-amine compounds as beta-secretase inhibitors and methods of use” (AMGEN INC., priority 2015, dated 2019).

Assay [1] deals with T1, BACE1 (Homo sapiens (Human), UniProt P56817). Kind of assay: In vitro enzymatic BACE1 FRET assay. The settings on record: read-out: IC50 IP (μM) BACE1 Enzyme. Type of assay: biochemical.
Target sequence in this assay (P56817 46-501): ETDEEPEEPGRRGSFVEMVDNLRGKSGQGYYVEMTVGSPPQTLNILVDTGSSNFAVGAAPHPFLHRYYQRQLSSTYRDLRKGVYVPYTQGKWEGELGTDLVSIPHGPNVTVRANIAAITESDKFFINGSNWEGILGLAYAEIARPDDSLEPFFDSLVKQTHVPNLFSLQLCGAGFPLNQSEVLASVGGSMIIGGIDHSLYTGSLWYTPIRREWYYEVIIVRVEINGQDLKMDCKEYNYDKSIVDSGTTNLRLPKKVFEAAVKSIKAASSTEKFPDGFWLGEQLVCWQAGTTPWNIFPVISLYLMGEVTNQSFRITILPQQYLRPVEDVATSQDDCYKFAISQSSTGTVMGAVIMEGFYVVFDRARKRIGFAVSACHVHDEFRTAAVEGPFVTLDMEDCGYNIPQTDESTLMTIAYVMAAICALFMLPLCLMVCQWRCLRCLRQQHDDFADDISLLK
Excerpt: (§1) In Vitro Enzymatic BACE1 and BACE2 FRET (Fluorescence Resonance Energy Transfer) Assays (Enzyme Assay Data in Table 1)
For assay [2], the target named is T1, BACE1. Kind of assay: BACE1 cell assay. The class given is cell-based.
Target sequence in this assay (P56817 46-501, species assumed): as the sequence (P56817 46-501) above
Assay [3] concerns the target Cathepsin D (CatD) (Homo sapiens (Human), UniProt P07339). Kind of assay: CatD assay. The class given is biochemical. The settings on record: read-out: IC50 IP (μM) CatD.
Assay [4] deals with BACE2 (Homo sapiens (Human), UniProt Q9Y5Z0). Kind of assay: In vitro enzymatic BACE2 FRET assay. The class given is biochemical. The settings on record: read-out: IC50 IP (μM) BACE2 Enzyme.
Excerpt: as §1
The mark [5] stands for this setting: read-out: IC50 IP (μM) BACE1 Cell.

SMILES strings stand for the structures.

Chain of BACE2 (Q9Y5Z0 63-518): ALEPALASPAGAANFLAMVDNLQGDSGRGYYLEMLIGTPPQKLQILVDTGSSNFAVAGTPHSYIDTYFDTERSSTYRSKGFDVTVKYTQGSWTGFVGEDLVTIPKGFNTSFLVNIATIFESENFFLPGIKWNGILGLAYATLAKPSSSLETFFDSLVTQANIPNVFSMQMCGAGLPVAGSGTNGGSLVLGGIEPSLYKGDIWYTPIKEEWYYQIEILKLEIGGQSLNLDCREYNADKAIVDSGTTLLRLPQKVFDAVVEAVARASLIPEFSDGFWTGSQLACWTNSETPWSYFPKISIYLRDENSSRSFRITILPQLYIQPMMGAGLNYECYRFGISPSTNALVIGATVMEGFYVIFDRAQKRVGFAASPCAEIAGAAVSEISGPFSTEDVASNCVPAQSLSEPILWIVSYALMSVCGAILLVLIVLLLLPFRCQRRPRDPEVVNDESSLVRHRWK
Chain of Cathepsin D (CatD) (P07339 65-412, species assumed): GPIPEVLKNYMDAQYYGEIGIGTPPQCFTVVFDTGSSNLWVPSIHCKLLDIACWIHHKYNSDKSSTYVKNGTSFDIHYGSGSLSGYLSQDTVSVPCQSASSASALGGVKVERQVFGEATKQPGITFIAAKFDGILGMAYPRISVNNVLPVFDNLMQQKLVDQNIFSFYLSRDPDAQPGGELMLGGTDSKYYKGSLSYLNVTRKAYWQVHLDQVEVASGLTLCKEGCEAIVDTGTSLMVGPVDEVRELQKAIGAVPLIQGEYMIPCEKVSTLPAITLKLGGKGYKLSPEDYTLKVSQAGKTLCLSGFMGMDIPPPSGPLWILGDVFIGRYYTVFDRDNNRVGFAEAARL

Take `C[C@]1(c2cc(/C=C(\F)c3ccc(C#N)cn3)ccc2F)N=C(N)S[C@@]2(C(=O)N3CCCC3)C[C@H]21` [Example 107, 6-((Z)-2-(3-((1S,5S,6S)-3-amino-5-methyl-1-(pyrrolidine-1-carbonyl)-2-thia-4-azabicyclo[4.1.0]hept-3-en-5-yl)-4-fluorophenyl)-1-fluorovinyl)nicotinonitrile]: the IC50 in assay [1] turned out to be 0.000673 µM; in assay [2] (setting [5]), 0.00384 µM; in assay [3] it was 396 µM.

As to `CN(C)C(=O)[C@]12C[C@H]1[C@@](C)(c1cc(/C=C(\F)c3cnc(C#CC4CC4)cn3)ccc1F)N=C(N)S2` [Example 159, (1S,5S,6S)-3-amino-5-(5-((Z)-2-(5-(cyclopropylethynyl)pyrazin-2-yl)-2-fluorovinyl)-2-fluorophenyl)-N,N,5-trimethyl-2-thia-4-azabicyclo[4.1.0]hept-3-ene-1-carboxamide], the IC50 in assay [1] came out at 0.000856 µM; in assay [2], 0.0166 µM; in assay [3], 71.9 µM.

For `C#CCOc1cnc(/C(F)=C/c2ccc(F)c([C@@]3(C)N=C(N)S[C@@]4(C(N)=O)C[C@H]43)c2)cn1` [Example 239, (1S,5S,6S)-3-amino-5-(2-fluoro-5-((Z)-2-fluoro-2-(5-(prop-2-yn-1-yloxy)pyrazin-2-yl)vinyl)phenyl)-5-methyl-2-thia-4-azabicyclo[4.1.0]hept-3-ene-1-carboxamide], the IC50 in assay [1] was 0.0013 µM; in assay [2], 0.0029 µM; in assay [4] it was 0.177 µM.

As to `C[C@]1(c2cc(/C=C(\F)c3ccc(C#N)cn3)cnc2F)N=C(N)S[C@@]2(C(=O)N3CCC(F)(F)C3)C[C@H]21` [Example 259, 6-((Z)-2-(5-((1S,5S,6S)-3-amino-1-(3,3-difluoropyrrolidine-1-carbonyl)-5-methyl-2-thia-4-azabicyclo[4.1.0]hept-3-en-5-yl)-6-fluoropyridin-3-yl)-1-fluorovinyl)nicotinonitrile], the IC50 in assay [1] stood at 0.0095 µM; in assay [2] (setting [5]) it was 0.0309 µM; in assay [4] it was 0.113 µM.

With `C#CCOc1cnc(/C(F)=C/c2cnc(F)c([C@@]3(C)N=C(N)S[C@@]4(C(=O)N5CCOC[C@H]5C)C[C@H]43)c2)cn1` [Example 283, ((1S,5S,6S)-3-amino-5-(2-fluoro-5-((Z)-2-fluoro-2-(5-(prop-2-yn-1-yloxy)pyrazin-2-yl)vinyl)pyridin-3-yl)-5-methyl-2-thia-4-azabicyclo[4.1.0]hept-3-en-1-yl)((R)-3-methylmorpholino)methanone], the IC50 in assay [1] worked out at 0.0017 µM; in assay [2] (setting [5]) it was 0.0044 µM; in assay [4], 0.375 µM.

Turning to `COC[C@]12C[C@H]1[C@@](C)(c1cc(/C=C(\F)c3ccc(Cl)cn3)ccc1F)N=C(N)S2` [Example 286, (1S,5S,6S)-5-(5-((Z)-2-(5-chloropyridin-2-yl)-2-fluorovinyl)-2-fluorophenyl)-1-(methoxymethyl)-5-methyl-2-thia-4-azabicyclo[4.1.0]hept-3-en-3-amine], the IC50 in assay [1] was determined as 0.0712 µM; in assay [2] (setting [5]), 0.346 µM; in assay [4], 0.069 µM.

Take `C#CCOc1cnc(/C(F)=C/c2ccc(F)c([C@@]3(C)N=C(N)S[C@@]4(C(=O)N5CC[C@@H](F)C5)C[C@H]43)c2)cn1` [Example 297, ((1S,5S,6S)-3-amino-5-(2-fluoro-5-((Z)-2-fluoro-2-(5-(prop-2-yn-1-yloxy)pyrazin-2-yl)vinyl)phenyl)-5-methyl-2-thia-4-azabicyclo[4.1.0]hept-3-en-1-yl)((R)-3-fluoropyrrolidin-1-yl)methanone]: the values for the IC50 in assay [1], in assay [2] (setting [5]) and in assay [4] were 0.0009 µM, 0.0004 µM and 0.041 µM, respectively.

As to `C#CCOc1cnc(/C(F)=C/c2ccc(F)c([C@@]3(C)N=C(N)S[C@@]4(C(=O)N5CC[C@H](F)C5)C[C@H]43)c2)cn1` [Example 303, ((1S,5S,6S)-3-amino-5-(2-fluoro-5-((Z)-2-fluoro-2-(5-(prop-2-yn-1-yloxy)pyrazin-2-yl)vinyl)phenyl)-5-methyl-2-thia-4-azabicyclo[4.1.0]hept-3-en-1-yl)((S)-3-fluoropyrrolidin-1-yl)methanone], the IC50 in assay [1] was found to be 0.0004 µM; in assay [2] (setting [5]), 0.0005 µM; in assay [4] it was 0.093 µM.

For `C#CCOc1cnc(/C(F)=C/c2ccc(F)c([C@@]3(C)N=C(N)S[C@@]4(C(=O)N5CCOC[C@H]5C)C[C@H]43)c2)cn1` [Example 304, ((1S,5S,6S)-3-amino-5-(2-fluoro-5-((Z)-2-fluoro-2-(5-(prop-2-yn-1-yloxy)pyrazin-2-yl)vinyl)phenyl)-5-methyl-2-thia-4-azabicyclo[4.1.0]hept-3-en-1-yl)((R)-3-methylmorpholino)methanone], the IC50 in assay [1] was determined as 0.0006 µM; in assay [2] (setting [5]), 0.0015 µM; in assay [4], 0.29 µM.

`COC[C@]12C[C@H]1[C@@](C)(c1cc(/C=C(\F)c3cc4c(cn3)OCCO4)ccc1F)N=C(N)S2` [Example 305, (1S,5S,6S)-5-(5-((Z)-2-(2,3-dihydro-[1,4]dioxino[2,3-c]pyridin-7-yl)-2-fluorovinyl)-2-fluorophenyl)-1-(methoxymethyl)-5-methyl-2-thia-4-azabicyclo[4.1.0]hept-3-en-3-amine]: the values for the IC50 in assay [1], in assay [2] (setting [5]) and in assay [4] were 1.76 µM, 0.793 µM and 0.373 µM, respectively.

Turning to `C[C@]1(c2cc(/C=C(\F)c3ccc(C#N)cn3)ccc2F)N=C(N)S[C@@]2(C(=O)N3CCO[C@H]4C[C@H]43)C[C@H]21` [Example 311, 6-((Z)-2-(3-((1S,5S,6S)-3-amino-1-((1S,6R)-2-oxa-5-azabicyclo[4.1.0]heptane-5-carbonyl)-5-methyl-2-thia-4-azabicyclo[4.1.0]hept-3-en-5-yl)-4-fluorophenyl)-1-fluorovinyl)nicotinonitrile], the IC50 in assay [1] stood at 0.0018 µM; in assay [2] (setting [5]), 0.0015 µM; in assay [4] it was 0.048 µM.

For `C[C@]1(c2cc(/C=C(\F)c3ccc(C#N)cn3)ccc2F)N=C(N)S[C@@]2(C(=O)N3CCCC(F)(F)C3)C[C@H]21` [Example 324, 6-((Z)-2-(3-((1S,5S,6S)-3-amino-1-(3,3-difluoropiperidine-1-carbonyl)-5-methyl-2-thia-4-azabicyclo[4.1.0]hept-3-en-5-yl)-4-fluorophenyl)-1-fluorovinyl)nicotinonitrile], the IC50 worked out at 0.0011 µM in assay [1], 0.0031 µM in assay [2] (setting [5]) and 0.019 µM in assay [4].

For the compound `C[C@]1(c2cc(/C=C(\F)c3ccc(C#N)cn3)ccc2F)N=C(N)S[C@@]2(C(=O)N3CC[C@@H](O)C3)C[C@H]21` [Example 333, 6-((Z)-2-(3-((1S,5S,6S)-3-amino-1-((R)-3-hydroxypyrrolidine-1-carbonyl)-5-methyl-2-thia-4-azabicyclo[4.1.0]hept-3-en-5-yl)-4-fluorophenyl)-1-fluorovinyl)nicotinonitrile], the values for the 50% inhibitory concentration (IC50) in assay [1], in assay [2] (setting [5]) and in assay [4] were 0.0008 µM, 0.0007 µM and 0.053 µM, respectively.

Take `C#Cc1cnc(/C(F)=C/c2ccc(F)c([C@@]3(C)N=C(N)S[C@@]4(C(=O)N5CCOCC5)C[C@H]43)c2)cn1` [Example 350, ((1S,5S,6S)-3-amino-5-(5-((Z)-2-(5-ethynylpyrazin-2-yl)-2-fluorovinyl)-2-fluorophenyl)-5-methyl-2-thia-4-azabicyclo[4.1.0]hept-3-en-1-yl)(morpholino)methanone]: the IC50 was determined as 0.004 µM in assay [1], 0.04 µM in assay [2] (setting [5]) and 0.046 µM in assay [4].
